Assay: method code SF-AS, from DOI: 10.1016/0045-6535(95)00342-8

| Compound | logP |
| --- | --- |
| CCOC(=O)CC(CSc1ccccc1)C(=O)OCC (stereo not drawn) | 2.98 |
| COC(=O)CC(C)Sc1ccccc1 (stereo not drawn) | 2.61 |
| CCOC(=O)CC(Sc1ccccc1)C(=O)OCC (stereo not drawn) | 2.6 |
| CC(C)OC(=O)CSc1ccccc1 | 2.53 |
| COC(=O)CC(Sc1ccccc1)C(=O)OC (stereo not drawn) | 1.42 |
| CCOC(=O)CCSc1ccccc1 | 2.72 |
| COC(=O)CC(CSc1ccccc1)C(=O)OC (stereo not drawn) | 1.96 |
| CC(C)OC(=O)CC(CSc1ccccc1)C(=O)OC(C)C (stereo not drawn) | 3.95 |
| CC(C)OC(=O)CC(Sc1ccccc1)C(=O)OC(C)C (stereo not drawn) | 3.53 |
| COC(=O)C(C)CSc1ccccc1 (stereo not drawn) | 2.63 |

More lines, now with the values ahead:

| logP | Compound |
| --- | --- |
| 2.69 | CCCOC(=O)CSc1ccccc1 |
| 3.26 | CCCCOC(=O)CSc1ccccc1 |
| 1.73 | CCOCCOC(=O)CSc1ccccc1 |
| 3.02 | CC(C)COC(=O)CSc1ccccc1 |
| 1.02 | COCCOC(=O)CSc1ccccc1 |
| 1.5 | COC(=O)CSc1ccccc1 |
| 2.12 | CCOC(=O)CSc1ccccc1 |
| 2.04 | COC(=O)CCSc1ccccc1 |

Source: the SangsterLogP compilation
